The numbers were not newly measured in US20250222024A1, “METHOD AND COMPOSITION FOR TREATING CORONA VIRUS, INFLUENZA, AND ACUTE RESPIRATORY DISTRESS SYNDROME” (ReversPAH LLC, priority 2020, published 2025), which cites them from elsewhere.

Series [1] relates to monocrotaline-induced pulmonary hypertension. The note with it: through the bone morphogenetic protein signaling pathway.
Series [2] deals with silica-induced lung inflammation and fibrosis. The note with it: by inhibiting T-helper 17 cell (TH 17).
Series [3] deals with carrageenan-induced lung injury. The conditions noted are these: for TNF-alpha levels in the lung / nitrite and nitrate levels (stable NO metabolites) in pleural exudates: 4 hours after carrageenan administration, versus CAR group, n=8 mice; for TNF-alpha levels in the lung: FIG. 10(a); for nitrite and nitrate levels (stable NO metabolites) in pleural exudates: FIG. 10(b).
In series [4] the test system is Sugen/hypoxia-induced PAH. The note with it: rat.
Series [5] has as its system SARS-CoV-2. The note with it: in vitro.

For the compound `O=C(O)[C@H]1O[C@@H](Oc2cc3oc(-c4ccccc4)cc(=O)c3c(O)c2O)[C@H](O)[C@@H](O)[C@@H]1O` [Baicalin], in series [1], the monocrotaline-induced pulmonary hypertension result is reported as “attenuate monocrotaline-induced pulmonary hypertension”. Besides, in series [2], the “silica-induced lung inflammation and fibrosis” value is “alleviate silica-induced lung inflammation and fibrosis”.

`CCN(CC)C(=O)N1CCN(C)CC1` [DEC, Diethylcarbamazine]: in series [3], the “TNF-alpha levels in the lung” value is on record as “significantly reduced the TNF-alpha levels”; the “nitrite and nitrate levels (stable NO metabolites) in pleural exudates” value is “significantly reduced the nitrite and nitrate level”. For the same compound, the “neutrophil infiltration into the lung (myeloperoxidase marker)” value in series [3] (mouse acute lung injury model, DEC pretreatment, FIG. 9) is on record as “significantly inhibited neutrophil infiltration”.

Consider `COc1ccc2c(c1)c(CC(=O)O)c(C)n2C(=O)c1ccc(Cl)cc1` [INDO], for which, in series [3], the “TNF-alpha levels in the lung” value is given as “did not reduce the TNF-alpha level”; the “nitrite and nitrate levels (stable NO metabolites) in pleural exudates” value is “significantly reduced the nitrite and nitrate level”.

`S=C(S)N1CCCC1` [pyrrolidine dithiocarbamate]: the “reversal of established angio-obliterative PAH” value in series [4] is “reverse established angio-obliterative PAH”.

In the case of Ivermectin, in series [5], the “replication of SARS-CoV-2” value is “inhibits the replication of SARS-CoV-2 in vitro”.
